# From patent US20260308536A1, “NOVEL URICASE VARIANTS AND METHODS OF USE THEREOF” (priority 2023, published 2026)
# Changes are numbered by the printed parent chain.
# Columns and labels:
# Assay type in all cases: biochemical
# [1] = biological target: T1, chimeric pig-baboon uricase variant 2 (dURC2), F75Q/K79E/T83Q/E90H/F96H/I100H/Y105D/V119K/Y127H/K155N/F172Y/L260N, SEQ ID NO: 2 (Sus scrofa, UniProt P16164, E96H/F102H/F178Y/F81Q/I106H/K161N/K85E/L266N/R291K/S46T/T301S/T89Q/V125K/Y111D/Y133H); assay: Michaelis Menten kinetics of uric acid conversion, dURC2; details: role: substrate; purified enzyme, non-linear regression; Table 3
# T1 construct: purified
# T1 sequence (P16164 with tags, fused parts or gaps S46T/F81Q/K85E/T89Q/E96H/F102H/I106H/Y111D/V125K/Y133H/K161N/F178Y/L266N/R291K/T301S): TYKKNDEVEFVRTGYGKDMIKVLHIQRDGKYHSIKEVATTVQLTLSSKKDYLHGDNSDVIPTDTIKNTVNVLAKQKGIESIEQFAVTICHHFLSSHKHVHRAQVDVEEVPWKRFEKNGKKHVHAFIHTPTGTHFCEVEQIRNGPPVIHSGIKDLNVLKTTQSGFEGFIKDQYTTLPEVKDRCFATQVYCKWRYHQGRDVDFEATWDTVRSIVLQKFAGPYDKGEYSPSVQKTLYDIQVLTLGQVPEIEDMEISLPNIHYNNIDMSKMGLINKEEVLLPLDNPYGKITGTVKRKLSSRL
# Experimental: (§1) Variants 1 (dURC1) and 3 (dURC3) were identified as possible lead candidates. Besides the mutations according to the library design, i.e., the designed mutations of F75Q; K79N; T83Q; E90H; F96H; I100E; Y105D; V119K; F172Y; L260N; and I262T, dURC3 comprised an off-position amino acid mutation K76N. An off-position amino acid mutation is defined as having a non-designed amino acid at a non-target site. […] Specifically, in the dURC1 backbone, the following mutations were tested separately: L154T; K155D; K155N; L157H; L157T; T159E; T159Q; and S162D; and in the dURC3 backbone, the K155N mutation was tested. […] The characteristics, including yield, activity, melting temperature measured by DSF, temperature at which 50% of normal activity was lost after heating measured by heat stress activity assay, Michaelis-Menten kinetics parameters, of variants 1, 2, 3, and 4 (i.e., dURC1, dURC2, dURC3 and dURC4), as well as the wild type chimeric pig-baboon uricase, are summarized in Table 2. The amino acid sequences of dURC1, dURC2, dURC3 and dURC4 are shown as SEQ ID NO: 1, 2, 3, and 4, respectively.
# (§2) The activity of the purified enzymes was quantified by Michaelis Menten kinetic analysis, using the solution phase microplate assay across a range of substrate concentrations (FIG. 4B).
# [2] = biological target: T2, PEGylated chimeric pig-baboon uricase variant dURC3, F75Q/K76N/K79N/T83Q/E90H/F96H/I100E/Y105D/V119K/F172Y/L260N/I262T, SEQ ID NO: 3 (Sus scrofa, UniProt P16164, E96H/F102H/F178Y/F81Q/I106E/I268T/K82N/K85N/L266N/R291K/S46T/T301S/T89Q/V125K/Y111D); assay: Michaelis Menten kinetics of uric acid conversion, PEGylated dURC3; details: role: substrate, Table 4
# T2 construct: purified, PEGylated with 10 kDa mPEG-NHS, about 10 PEG per monomer
# T2 sequence (P16164 with tags, fused parts or gaps S46T/F81Q/K82N/K85N/T89Q/E96H/F102H/I106E/Y111D/V125K/F178Y/L266N/I268T/R291K/T301S): T1 sequence (P16164 with tags, fused parts or gaps S46T/F81Q/K85E/T89Q/E96H/F102H/I106H/Y111D/V125K/Y133H/K161N/F178Y/L266N/R291K/T301S) with K76N, E79N, H100E, H127Y, N155K, I262T
# Experimental: (§3) PEGylation of the wild type chimeric pig-baboon uricase or its variants was performed by the following procedure: • (1) adding 50 fold molar excess methoxy-PEG-(CH2)5COO—NHS of 10 kDa in molecular weight (Chemical Name: Poly(oxy-1,2-ethanediyl), α-methyl-ω-{2-[(2,5-dioxo-1-pyrrolidinyl)oxy]-6-oxohexyloxy}; NOF America Corporation, Cat #SUNBRIGHT ME-100HS) to purified uricase protein on ice and incubating with stirring for one hour; • (2) verifying radius by DLS (14-15 nm radius ~=wild type); • (3) concentrating PEGylated protein using stirred cell with 50 kDa filter to 15 ml; • (4) loading the concentrated PEGylated protein onto a SUPERDEX 200 HILOAD 26/600 column and eluting with PBS; • (5) pooling fractions identified as being mono-disperse by DLS; • (6) concentrating the pooled fractions using a stirred cell with 50 kDa filter to 5 mg/ml.
# (§4) dURC3 and the wild type chimeric pig-baboon uricase were successfully PEGylated, with an average of about 10 PEG molecules conjugated to a uricase monomer, based on SDS-PAGE and size exclusion chromatography with multi-angle static light scattering (SEC-MALS) analysis. The activity quantified by Michaelis Menten kinetic analysis, as well as the melting temperature quantified by differential scanning fluorimetry, of PEGylated dURC3 and PEGylated wild type chimeric pig-baboon uricase was determined using the methods described in Example 1.
# [3] = biological target: T3, chimeric pig-baboon uricase variant 1 (dURC1), F75Q/K79E/T83Q/E90H/F96H/I100H/Y105D/V119K/Y127H/F172Y/L260N, SEQ ID NO: 1 (Sus scrofa, UniProt P16164, E96H/F102H/F178Y/F81Q/I106H/K85E/L266N/R291K/S46T/T301S/T89Q/V125K/Y111D/Y133H); assay: Michaelis Menten kinetics of uric acid conversion, dURC1; details: role: substrate; purified enzyme, non-linear regression; Table 3
# T3 construct: purified
# T3 sequence (P16164 with tags, fused parts or gaps S46T/F81Q/K85E/T89Q/E96H/F102H/I106H/Y111D/V125K/Y133H/F178Y/L266N/R291K/T301S): T1 sequence (P16164 with tags, fused parts or gaps S46T/F81Q/K85E/T89Q/E96H/F102H/I106H/Y111D/V125K/Y133H/K161N/F178Y/L266N/R291K/T301S) with N155K
# Experimental: as §1, §2
# [4] = biological target: T4, chimeric pig-baboon uricase, wild type, SEQ ID NO: 5 (Sus scrofa, UniProt P16164, R291K/S46T/T301S); assay: Michaelis Menten kinetics of uric acid conversion, wild type chimeric pig-baboon uricase; details: role: substrate; purified enzyme, non-linear regression; Table 3
# T4 construct: His6 (C); made in house; host or cells: E. coli
# T4 sequence (P16164 with tags, fused parts or gaps S46T/R291K/T301S): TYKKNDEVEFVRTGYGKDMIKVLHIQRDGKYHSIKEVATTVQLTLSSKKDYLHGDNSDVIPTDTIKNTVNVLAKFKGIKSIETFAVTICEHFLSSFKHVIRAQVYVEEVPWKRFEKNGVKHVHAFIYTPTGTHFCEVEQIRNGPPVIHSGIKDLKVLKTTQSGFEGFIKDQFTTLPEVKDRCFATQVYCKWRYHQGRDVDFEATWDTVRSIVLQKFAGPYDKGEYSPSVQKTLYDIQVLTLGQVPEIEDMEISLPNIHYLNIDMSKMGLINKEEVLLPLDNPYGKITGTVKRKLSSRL
# Excerpt: The monomeric form of the wild type chimeric pig-baboon uricase comprises the amino acid sequence of SEQ ID NO:5, where threonine is residue #1. The specified mutations in the chimeric pig-baboon uricase variants of this example are indexed to threonine as residue #1, as in SEQ ID NO:5. […] The expression vector pET-26b(+) encodes a His tag containing 6 histidine residues at the C-terminus of the inserted uricase gene.
# as §2
# [5] = biological target: T5, chimeric pig-baboon uricase variant 3 (dURC3), F75Q/K76N/K79N/T83Q/E90H/F96H/I100E/Y105D/V119K/F172Y/L260N/I262T, SEQ ID NO: 3 (Sus scrofa, UniProt P16164, E96H/F102H/F178Y/F81Q/I106E/I268T/K82N/K85N/L266N/R291K/S46T/T301S/T89Q/V125K/Y111D); assay: Michaelis Menten kinetics of uric acid conversion, dURC3; details: role: substrate
# T5 construct: purified
# T5 sequence (P16164 with tags, fused parts or gaps S46T/F81Q/K82N/K85N/T89Q/E96H/F102H/I106E/Y111D/V125K/F178Y/L266N/I268T/R291K/T301S): T1 sequence (P16164 with tags, fused parts or gaps S46T/F81Q/K85E/T89Q/E96H/F102H/I106H/Y111D/V125K/Y133H/K161N/F178Y/L266N/R291K/T301S) with K76N, E79N, H100E, H127Y, N155K, I262T
# Experimental: An off-position amino acid mutation is defined as having a non-designed amino acid at a non-target site. […] Specifically, in the dURC1 backbone, the following mutations were tested separately: L154T; K155D; K155N; L157H; L157T; T159E; T159Q; and S162D; and in the dURC3 backbone, the K155N mutation was tested. […] The amino acid sequences of dURC1, dURC2, dURC3 and dURC4 are shown as SEQ ID NO: 1, 2, 3, and 4, respectively.
# as §2
# [6] = biological target: T6, chimeric pig-baboon uricase variant 4 (dURC4), F75Q/K76N/K79N/T83Q/E90H/F96H/I100E/Y105D/V119K/K155N/F172Y/L260N/I262T, SEQ ID NO: 4 (Sus scrofa, UniProt P16164, E96H/F102H/F178Y/F81Q/I106E/I268T/K161N/K82N/K85N/L266N/R291K/S46T/T301S/T89Q/V125K/Y111D); assay: Michaelis Menten kinetics of uric acid conversion, dURC4; details: role: substrate; purified enzyme, non-linear regression; Table 3
# T6 construct: purified
# T6 sequence (P16164 with tags, fused parts or gaps S46T/F81Q/K82N/K85N/T89Q/E96H/F102H/I106E/Y111D/V125K/K161N/F178Y/L266N/I268T/R291K/T301S): T1 sequence (P16164 with tags, fused parts or gaps S46T/F81Q/K85E/T89Q/E96H/F102H/I106H/Y111D/V125K/Y133H/K161N/F178Y/L266N/R291K/T301S) with K76N, E79N, H100E, H127Y, I262T
# Experimental: as §1, §2
# [7] = biological target: T7, PEGylated chimeric pig-baboon uricase, wild type, SEQ ID NO: 5 (Sus scrofa, UniProt P16164, R291K/S46T/T301S); assay: Michaelis Menten kinetics of uric acid conversion, PEGylated wild type chimeric pig-baboon uricase; details: role: substrate, Table 4
# T7 construct: His6 (C); made in house; host or cells: E. coli
# T7 sequence (P16164 with tags, fused parts or gaps S46T/R291K/T301S limits assumed): T4 sequence (P16164 with tags, fused parts or gaps S46T/R291K/T301S)
# Experimental: as §3, §4
compound,measurement,setting,value
O=c1[nH]c(=O)c2[nH]c(=O)[nH]c2[nH]1 [uric acid],Apparent kcat,[1],34 ± 1 arbitrary units
same,Vmax,[2],67 Δabs/min
same,Apparent kcat,[3],43 ± 2 arbitrary units
same,Apparent kcat,[4],30 ± 1 arbitrary units
same,higher apparent kcat compared to the wild type,[5]; dURC3 relative to wild type chimeric pig-baboon uricase,33%
same,Apparent kcat,"[5]; purified enzyme, non-linear regression, Table 3",40 ± 2 arbitrary units
same,Apparent kcat,[6],28.0 ± 0.5 arbitrary units
same,Vmax,[7],170 Δabs/min
